Measurements reported in US20240002437A1, “COMPOSITIONS AND METHODS OF TREATING INFLAMMATORY LUNG DISEASES” (priority 2020, published 2024).
Entries after “also recorded” stand apart in the source; their conditions may differ.

What was measured:
PAEC monolayers = experiment: Trans endothelial resistance (TER) of PAEC monolayers; type: cell-based, ovine
Experimental: (§1) Primary cultures of ovine pulmonary arterial endothelial cells (PAEC) were isolated as described previously (L. K. Kelly, Am J Physiol Lung Cell Mol Physiol, 286(5), L984-91 (2004)). Briefly, cells were maintained in Dulbecco's modified Eagle medium (DMEM) supplemented with 10% fetal calf serum (Hyclone, Logan, UT), antibiotics/antimycotic (500 IU Penicillin, 500 μg/ml Streptomycin, 1.25 μg/ml Amphotericin B; MediaTech, Herndon, VA) at 37° C. in a humidified atmosphere with 5% CO2 and 95% air. Cells were used for experiments between passages 9-14, seeded at ˜50% confluence, and utilized when fully confluent.
Transendothelial Electrical Resistance (TER) was determined to characterize the integrity of PAEC monolayers using an electrical cell-substrate impedance sensing (ECIS) instrument ECIS Z-Theta (Applied BioPhysics, Troy, NY) as previously described (J. N. Gonzales, Vascul Pharmacol, 62(2), 63-71 (2014); S. Aggarwal, American Journal of Respiratory Cell and Molecular Biology, 50(3), 614-25 (2014)). The cells were plated in 8-well ECIS arrays (Applied BioPhysics) in complete cell culture medium (DMEM supplemented with 10% FBS) and grown to 100% confluency for 2 days. […] After a baseline measurement, the EC were treated with 4αPDD, PMA, the eNOS pT495 decoy peptide, or vehicle at the indicated concentrations, and changes in TER were recorded in real time.

[1] = tested on: mitochondrial redistribution of eNOS; experiment: Immunofluorescent microscopy of eNOS mitochondrial redistribution in PAEC; type: cell-based, ovine
Experimental: as §1
PAEC were grown on cover glass for three days after reaching 100% confluence, and fixed with 4% paraformaldehyde (Thermo Fisher Scientific) for 30 min, permeabilized with 100% cold methanol at −20° C. for 5 min Cell then blocked with 1% BSA for 1 hour, and later incubated with first antibody overnight at 4° C. then secondary antibody at room temperature for 1 hour. Finally, cells were mounted on microscope slides using ProLong Glass Antifade Mountant, (Invitrogen, Carlsbad, CA, Cat #P36980). […] The images were analyzed with ImagePro Plus 7.0 (W. Casavan, Microscopy Today, 11(6), 48-50 (2003)) or ImageJ software to evaluate the colocalization of fluorescent.

purified PKCα = purified PKCα (Homo sapiens, UniProt P17252); experiment: In vitro peptide binding assay (biotinylated d-peptide, streptavidin capture, blot); settings: biotinylated d-peptide 0 to 5 μg, PKC lipid activator, 1 hour room temperature
Experimental: Biotinylation of the decoy peptide (d-peptide) was performed using the Thermo Scientific EZ-Link Sulfo-NHS-LC-Biotinylation Kit. Briefly, Sulfo-NHS-LC-Biotin was mixed with d-peptide and the reaction mix was incubated at room temperature for 30 minutes. Different concentrations of the biotinylated d-peptide (0 to 5 μg) mixed with either purified eNOS protein or PKCα protein in a reaction mix containing PKC lipid activator were incubated at room temperature for 1 hour. Protein bound to the biotinylated d-peptide was captured using Thermo Scientific streptavidin agarose column and run on a 10% SDS-PAGE gel under reducing condition. The resulting blots were probed with antibodies to eNOS and PKCα protein respectively. Reactive bands were visualized using chemiluminescence on the LI-COR Odyssey image station.

NOS-derived superoxide = NOS-derived superoxide by EPR (eNOS uncoupling) in PAEC; type: cell-based, ovine
Experimental: as §1
Superoxide levels were estimated by electron paramagnetic resonance (EPR) assay using the spin-trap compound 1-hydroxy-3-methoxycarbonyl-2,2,5,5-tetramethylpyrrolidine HCl (CMH, Axxora) as described previously. Superoxide in PAEC was trapped by incubating PAEC with 20 μl of CMH stock solution (20 mg/ml) for 1 h, followed by trypsinization and centrifugation at 500 g. The cell pellet was suspended in 35 μl DPBS and loaded into a capillary tube which was then analyzed with a MiniScope MS200 EPR machine (Magnettech, Berlin, Germany). Pre-incubating cells or tissue with 100 μM ethylisothiourea (ETU, Sigma-Aldrich) for 30 min followed by incubation with CMH measured NOS-derived superoxide. EPR spectra were analyzed using ANALYSIS v.2.02 software (Magnettech). Differences between levels of samples incubated in the presence and absence of ETU were used to determine NOS-dependent superoxide generation.

[2] = tested on: eNOS phosphorylation at T495; experiment: Western blot of pT495-eNOS in PAEC; type: cell-based, ovine
Experimental: as §1
Protein extracts were prepared using lysis buffer (50 mM Tris-HCl, pH 7.6, 0.5% Triton X-100, 20% glycerol) containing HALT™ protease inhibitor cocktail (Pierce Laboratories, Rockford, IL). The extracts were then subjected to centrifugation (15,000 g for 15 min at 4° C.). Supernatant fractions were assayed for protein concentration using the Bradford reagent (Bio-Rad, Richmond, CA) then used for Western blot analyses. Protein extracts (25-50 μg) were separated on Long-Life 4-20% Tris-SDS-Hepes gels and electrophoretically transferred to IMMUNO-BLOT™ PVDF membrane (Bio-Rad Laboratories, Hercules, CA) Immunoblotting was then carried out using the appropriate antibodies in Tris-base buffered saline with 0.1% Tween 20 and 5% nonfat milk. After washing, the membranes were probed with horseradish peroxidase-conjugated goat antiserum to rabbit or mouse. Reactive bands were visualized using chemiluminescence (Super Signal West Femto; Pierce, Rockford, IL) on a LI-COR Odyssey image station (Lincoln, NE). Bands were quantified using LI-COR Image Station software. Loading was normalized by reprobing the membranes with an antibody specific to β-actin.

PAEC = experiment: Mitochondrial ROS levels (MitoSOX Red) in PAEC; type: cell-based, ovine; settings: 4αPDD 10 μM, 3 h
Experimental: as §1
MitoSOX™ Red (Molecular Probes), a fluorogenic dye for selective detection of ROS levels in the mitochondria of live cells was used. Briefly, cells were washed with fresh media, and then incubated in media containing MitoSOX Red (2 μM), for 30 min at 37° C. in dark conditions then subjected to fluorescence microscopy at an excitation of 510 nm and an emission at 580 nm. An Olympus IX51 microscope equipped with a CCD camera (Hamamatsu Photonics) was used for acquisition of fluorescent images. The average fluorescent intensities (to correct for differences in cell number) were quantified using ImagePro Plus version 5.0 imaging software (Media Cybernetics, Rockville, MD).

Compound | barrier disruption induced by 4αPDD (normalized TER) (PAEC monolayers; d-peptide plus 4αPDD) | PMA-induced mitochondrial redistribution of eNOS ([1]; d-peptide and PMA) | binding to purified PKCα (purified PKCα) | eNOS uncoupling (NOS-derived superoxide levels) (NOS-derived superoxide; d-peptide and PMA) | PMA-mediated increase in pT495-eNOS ([2]; d-peptide 1 μg/ml, PMA 100 nm, 2 h) | TER (barrier integrity) (PAEC monolayers; 4αPDD 0-15 μM) | mitochondrial redistribution of eNOS ([1]; 4αPDD) | NOS derived superoxide generation (eNOS uncoupling) (NOS-derived superoxide; 4αPDD) | mitochondrial ROS levels (MitoSOX red fluorescence) (PAEC) | eNOS phosphorylation at T495 ([2]; 4αPDD)
HRKKRRQRRITRKKTFKEVA [d-peptide] | reduced | attenuated | binds efficiently; also recorded: able to bind efficiently to purified PKCα | reduced eNOS uncoupling | attenuated the PMA-mediated increase in pT495-eNOS | – | – | – | – | –
CCCCCCCCCC(=O)O[C@@H]1[C@@H](C)[C@@]2(O)[C@@H](C=C(CO)C[C@@]3(O)C(=O)C(C)=C[C@@H]23)[C@@H]2C(C)(C)[C@]12OC(=O)CCCCCCCCC [4αPDD, 4α-Phorbol-12,13 didecanoate] | – | – | – | – | – | dose-dependent decrease in TER | induces the mitochondrial redistribution of eNOS | increases in NOS derived superoxide generation | increases in mitochondrial ROS levels | increase in eNOS phosphorylation at T495
